± gives the expanded uncertainty stated by the source.
Tests used:
[1] = xn = mol fraction of the nth substance listed; details: 303.15 K, Maximal bubble pressure
[2] = for mass density: 298.15 K, 101.33 kPa; for mass density / vapor or sublimation pressure: Liquid; for surface tension liquid-gas: 303.15 K, Maximal bubble pressure
[3] = refractive index (Na D-line) (dimensionless); details: 298.15 K; 101.33 kPa; Liquid; Standard Abbe refractometry

COC(C)(C)C [2-methoxy-2-methylpropane] + CCO
[1]
Details | surface tension liquid-gas [mN/m]
x2 = 0.102 | 18.39 ± 0.25
x2 = 0.212 | 18.38 ± 0.25
x2 = 0.31 | 18.54 ± 0.25
x2 = 0.408 | 18.84 ± 0.25
x2 = 0.527 | 19 ± 0.25
x2 = 0.623 | 19.21 ± 0.25
x2 = 0.721 | 19.56 ± 0.25
x2 = 0.826 | 20.03 ± 0.25

COC(C)(C)C [2-methoxy-2-methylpropane]
Details | mass density [kg/m3] | refractive index | surface tension liquid-gas [mN/m]
[2] | 735.45 ± 0.36 | – | 18.7 ± 0.25
[3] | – | 1.36766 ± 0.00031 | –

[2]
Details | vapor or sublimation pressure [kPa]
308.3 K | 50 ± 0.12
319.39 K | 75 ± 0.13
325.98 K | 94 ± 0.15

CCO [ethanol]
Details | mass density [kg/m3] | refractive index | surface tension liquid-gas [mN/m]
[2] | 785.05 ± 0.31 | – | 21.7 ± 0.26
[3] | – | 1.36068 ± 0.00031 | –

[2]
Details | vapor or sublimation pressure [kPa]
310.89 K | 16.01 ± 0.08
318.88 K | 24.01 ± 0.08
323.51 K | 30.01 ± 0.09
328.54 K | 38.01 ± 0.1
332.24 K | 45.01 ± 0.11
334.57 K | 50 ± 0.11
335.05 K | 51.01 ± 0.11
338.38 K | 59.01 ± 0.13
341.01 K | 66.01 ± 0.14
343.4 K | 73.01 ± 0.14
344.02 K | 75 ± 0.15
345.61 K | 80.01 ± 0.15
347.66 K | 87.01 ± 0.16
349.56 K | 94 ± 0.17
349.58 K | 94.01 ± 0.17
351.65 K | 102.07 ± 0.18

— the NIST ThermoML archive (doi:10.1021/je9004068)
